Reference: US11214803B2, “Modulators of YAP1 expression” (Ionis Pharmaceuticals, Inc., priority 2019, dated 2022)
Strand notation (5' to 3'): a small letter for the sugar, then the base; units joined by * are phosphorothioate-linked, units joined directly phosphodiester-linked; [ ] holds rarer units or linkages, { } end groups; capitals alone tell only the bases. e = 2'-O-(2-methoxyethyl) (MOE); k = constrained ethyl (cEt); [5mC] = 5-methylcytosine; d = 2'-deoxy (DNA); m = 2'-O-methyl

System: Yap1 mRNA
Assay: Antisense inhibition of human Yap1 in SNU-449 cells by modified oligonucleotides, single dose (Example 5, RTS36584)
Type: cell-based
Conditions: Table 39; SNU-449 cells, 10,000 cells per well, free uptake, 2,000 nM oligonucleotide, approx. 48 hours; RTS36584; normalized to RIBOGREEN; Yap1 mRNA relative to untreated control
How it was run: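 Values are Yap1 mRNA as percent of untreated control cells, measured by quantitative real-time RT-PCR using RTS36584 and normalised to total RNA by RIBOGREEN. Cells were SNU-449, dosed by free uptake at 2,000 nM for approximately 48 hours.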

| Substance | YAP1 (% UTC) |
| --- | --- |
| 1198410 (kA*dT*dA*dG*dT*dG*d[5mC]*dT*dT*dT*dG*kG*eA*kA*eG*kA; antisense) [Compound 1198410] | 48 |
| 1095397 (antisense kT*dG*dA*dG*dG*dT*dA*dT*dA*dA*d[5mC]*kT*eG*kG*eG*k[5mC]) [Compound 1095397] | 53 |
| 1198376 (kT*dG*dG*dA*dA*dA*dT*dT*dG*dT*d[5mC]*kT*e[5mC]*kA*eT*kG; antisense) [Compound 1198376] | 36 |

Same assay, conditions: Table 40 (separate experiment); SNU-449 cells, 10,000 cells per well, free uptake, 2,000 nM oligonucleotide, approx. 48 hours; RTS36584; normalized to RIBOGREEN; Yap1 mRNA relative to untreated control

| Substance | YAP1 (% UTC) |
| --- | --- |
| 1198439 (kA*dG*dT*dG*dT*dA*dT*dG*dT*d[5mC]*dA*kG*eA*kA*eG*kA; antisense) [Compound 1198439] | 6 |
| 1198719 (kG*eG*kA*dA*dA*dT*dT*dG*dT*d[5mC]*dT*d[5mC]*eA*eT*kG*k[5mC]; antisense) [Compound 1198719] | 14 |
| 1198781 (antisense kG*eT*kA*dA*dT*dA*dT*dT*dG*d[5mC]*dA*dA*eT*e[5mC]*kT*kG) [Compound 1198781] | 25 |

Same assay, conditions: Table 41; SNU-449 cells, 10,000 cells per well, free uptake, 2,000 nM modified oligonucleotide, approximately 48 hours; RTS36584; normalized to RIBOGREEN; Yap1 mRNA relative to untreated control cells

| Substance | YAP1 (% UTC) |
| --- | --- |
| 1198652 (kT*kT*dT*dT*dA*d[5mC]*dA*dT*dT*dA*dG*dG*kA*eA*k[5mC]*eA; antisense) [Compound 1198652] | 68 |

Same assay, conditions: Table 42 (separate experiment); SNU-449 cells, 10,000 cells per well, free uptake, 2,000 nM modified oligonucleotide, approximately 48 hours; RTS36584; normalized to RIBOGREEN; Yap1 mRNA relative to untreated control cells

| Substance | YAP1 (% UTC) |
| --- | --- |
| 1198205 (kA*kT*dG*dG*dA*dA*dA*dT*dT*dG*dT*e[5mC]*eT*e[5mC]*kA*kT; antisense) [Compound 1198205] | 64 |
| 1198200 (kA*kA*dT*dT*dG*dT*d[5mC]*dT*d[5mC]*dA*dT*eG*e[5mC]*e[5mC]*kT*kT; antisense) [Compound 1198200] | 49 |

Same assay, conditions: Table 43 experiment; SNU-449 cells, 10,000 cells per well, free uptake, 2,000 nM, approximately 48 hours; RTS36584; Yap1 mRNA normalized to RIBOGREEN, relative to untreated control cells

| Substance | YAP1 (% UTC) |
| --- | --- |
| 1198457 (kA*kT*dT*dG*dT*d[5mC]*dT*d[5mC]*dA*dT*dG*e[5mC]*k[5mC]*eT*kT*eA) [Compound 1198457] | 18 |
| 1198216 (kT*kA*dT*dA*dA*d[5mC]*dT*dG*dG*dG*d[5mC]*eA*eA*eA*kT*kT; antisense) [Compound 1198216] | 89 |
| 1198461 (antisense kG*kG*dA*dA*dA*dT*dT*dG*dT*d[5mC]*dT*e[5mC]*kA*eT*kG*e[5mC]) [Compound 1198461] | 24 |

Same assay, conditions: Table 44 experiment; SNU-449 cells, 10,000 cells per well, free uptake, 2,000 nM, approximately 48 hours; RTS36584; Yap1 mRNA normalized to RIBOGREEN, relative to untreated control cells

| Substance | YAP1 (% UTC) |
| --- | --- |
| 1198904 (kT*kA*dT*dT*dA*dG*dA*dG*dT*dA*dT*kG*dT*kG*dG*k[5mC]; antisense) [Compound 1198904] | 12 |
| 1198902 (kT*kT*dA*dG*dA*dG*dT*dA*dT*dG*dT*kG*dG*k[5mC]*dA*kA; antisense) [Compound 1198902] | 13 |

Same assay, conditions: Table 45; Yap1 mRNA as percent of untreated control, SNU-449 cells, single dose

| Substance | YAP1 (% UTC) |
| --- | --- |
| 1198971 (k[5mC]*kT*dA*dA*dG*dT*dA*dA*dG*dG*dT*kT*dT*k[5mC]*d[5mC]*k[5mC]; antisense) [Compound 1198971] | 31 |
| 1198969 (kA*kA*dG*dT*dA*dA*dG*dG*dT*dT*dT*k[5mC]*d[5mC]*k[5mC]*dA*kG; antisense) [Compound 1198969] | 31 |
| 1198912 (kA*kA*d[5mC]*dA*d[5mC]*dT*dG*dA*dG*dG*dT*kA*dT*kA*dA*k[5mC]; antisense) [Compound 1198912] | 78 |
| 1198970 (kT*kA*dA*dG*dT*dA*dA*dG*dG*dT*dT*kT*d[5mC]*k[5mC]*d[5mC]*kA; antisense) [Compound 1198970] | 29 |
| 1198961 (kA*kA*dA*dG*dT*dG*dT*dA*dT*dG*dT*k[5mC]*dA*kG*dA*kA; antisense) [Compound 1198961] | 12 |
| 1198916 (kA*k[5mC]*dT*dT*dT*dT*dA*d[5mC]*dA*dT*dT*kA*dG*kG*dA*kA; antisense) [Compound 1198916] | 59 |

Same assay, conditions: Table 46; Yap1 mRNA as percent of untreated control, SNU-449 cells, single dose

| Substance | YAP1 (% UT) |
| --- | --- |
| 1198809 (antisense kG*kG*dA*dA*dA*dT*dT*dG*dT*d[5mC]*dT*k[5mC]*eA*kT*eG*k[5mC]) [Compound 1198809] | 27 |
| 1198843 (kA*kG*dT*dG*d[5mC]*dT*dT*dT*dG*dG*dA*kA*eG*kA*eT*k[5mC]; antisense) [Compound 1198843] | 45 |
| 1198815 (antisense kT*kA*dG*dA*dG*dT*dA*dT*dG*dT*dG*kG*e[5mC]*kA*eA*kT) [Compound 1198815] | 24 |

Same assay, conditions: Table 48; Yap1 mRNA level relative to untreated control; modified oligonucleotides targeting SEQ ID NO.: 1 and 2

| Substance | YAP1 (% UT) |
| --- | --- |
| 1197201 (antisense kT*k[5mC]*kT*dT*dA*dT*dA*dT*dG*dG*dT*dT*dT*kT*kG*kT) [Compound 1197201] | 46 |
| 1197213 (antisense kT*kG*kT*dA*dT*dG*dT*d[5mC]*dA*dG*dA*dA*dG*kA*kG*kT) [Compound 1197213] | 5 |
| 1197216 (antisense kA*kA*kA*dG*dT*dG*dT*dA*dT*dG*dT*d[5mC]*dA*kG*kA*kA) [Compound 1197216] | 12 |

Same assay, conditions: Table 49; Yap1 mRNA level relative to untreated control; modified oligonucleotides targeting SEQ ID NO.: 1 and 2

| Substance | YAP1 (% UT) |
| --- | --- |
| 1198355 (kA*kA*kA*dG*dT*dG*dT*dA*dT*dG*dT*d[5mC]*kA*eG*kA*eA; antisense) [Compound 1198355] | 6 |
| 1198341 (k[5mC]*kA*kA*d[5mC]*dT*d[5mC]*dT*dT*dA*dT*dA*dT*kG*eG*kT*eT; antisense) [Compound 1198341] | 90 |
| 1198364 (kT*kA*kA*dG*dT*dA*dA*dG*dG*dT*dT*dT*k[5mC]*e[5mC]*k[5mC]*eA; antisense) [Compound 1198364] | 29 |

Same assay, conditions: Table 50; Yap1 mRNA remaining as percent of untreated control (UT), SNU-449 cells, single dose

| Substance | YAP1 (% UT) |
| --- | --- |
| 1197288 (kT*k[5mC]*kT*dA*mU*dA*dT*dT*dA*dG*dA*dG*dT*kA*kT*kG; antisense) [Compound 1197288] | 94 |

Same assay, conditions: Table 51; Yap1 mRNA remaining as percent of untreated control (UT), SNU-449 cells, single dose

| Substance | YAP1 (% UT) |
| --- | --- |
| 1197317 (kA*kG*kA*d[5mC]*mU*dA*dA*dG*dT*dA*dA*dG*dG*kT*kT*kT; antisense) [Compound 1197317] | 78 |
| 1197273 (kT*kA*kA*dG*mG*dT*dT*dT*d[5mC]*d[5mC]*d[5mC]*dA*dG*kA*kT*kT) [Compound 1197273] | 68 |
| 1197301 (AGATUTAGGATGCATG; chemistry not fully specified) [Compound 1197301] | 71 |
| 1197243 (antisense kA*kA*k[5mC]*dA*mC*dT*dG*dA*dG*dG*dT*dA*dT*kA*kA*k[5mC]) [Compound 1197243] | 81 |
| 1197290 (kG*kA*kG*dG*mU*dA*dT*dA*dA*d[5mC]*dT*dG*dG*kG*k[5mC]*kA) [Compound 1197290] | 37 |
| 1197312 (kT*kG*kT*dA*mU*dG*dT*d[5mC]*dA*dG*dA*dA*dG*kA*kG*kT; antisense) [Compound 1197312] | 10 |

Same assay, conditions: Table 52; Yap1 mRNA, modified oligonucleotides targeting SEQ ID NO: 1 and 2

| Substance | YAP1 (% UT) |
| --- | --- |
| 1200839 (kT*kT*kA*dT*dA*mU*dG*dG*dT*dT*dT*dT*dG*kT*kG*kT; antisense) [Compound 1200839] | 44 |
| 1200806 (kT*kG*kA*dG*dG*mU*dA*dT*dA*dA*d[5mC]*dT*dG*kG*kG*k[5mC]; antisense) [Compound 1200806] | 24 |
| 1200790 (kT*kG*kG*dA*dA*mA*dT*dT*dG*dT*d[5mC]*dT*d[5mC]*kA*kT*kG; antisense) [Compound 1200790] | 33 |

Same assay, conditions: Yap1 mRNA, percent of untreated control; modified oligonucleotides targeting SEQ ID NO: 1 and 2; Table 47

| Substance | YAP1 (% UT) |
| --- | --- |
| 1197209 (antisense kT*kG*kT*dA*dA*dT*dA*dT*dT*dG*d[5mC]*dA*dA*kT*k[5mC]*kT) [Compound 1197209] | 33 |
| 1197192 (antisense kA*kT*kA*dG*dT*dG*d[5mC]*dT*dT*dT*dG*dG*dA*kA*kG*kA) [Compound 1197192] | 39 |
| 1097037 (antisense kA*kG*kA*dT*dT*dT*dA*dG*dG*dA*dT*dG*d[5mC]*kA*kT*kG) [Compound 1097037] | 38 |
